Tests used:
[1] = Pharmacokinetic studies of ATUX-8385 in mice (IV and PO), plasma by LC-MS/MS; format: in vivo
Protocol: Pharmacokinetic (PK) studies of ATUX-8385 were conducted by Eurofins. Briefly, ATUX-8385 was administered at 1 mg/kg intravenously (IV) or 30 mg/kg oral (PO) to male mice, as is the experimental choice of the Contract Research Organization. At euthanasia, samples were collected and stored at −70 °C until processing. The plasma samples were collected at 0.05, 0.167, 0.5, 1, 2, 4, 8, and 24 h(s) after IV treatment, and at 0.167, 0.5, 1, 2, 4, 6, 8, and 24 h(s) after PO treatment. The plasma samples were processed using acetonitrile precipitation and analyzed by liquid chromatography–tandem mass spectrometry (LC-MS/MS).

[2] = In vitro microsome (oxidative) stability / in vitro metabolism; format: in vitro ADME
PP2A = molecular target: T1, PP2A (Homo sapiens, UniProt P30153+P67775+Q15172); assay: PP2A Immunoprecipitation Phosphatase Assay on lysates of treated NB cells; format: cell-based; details: 24 h, control 100%, mean ± SEM
T1 construct: endogenous in cells; host or cells: SK-N-AS, SK-N-BE(2), SH-EP, WAC2 human neuroblastoma cells
T1 sequence (P30153 2-589 limits assumed): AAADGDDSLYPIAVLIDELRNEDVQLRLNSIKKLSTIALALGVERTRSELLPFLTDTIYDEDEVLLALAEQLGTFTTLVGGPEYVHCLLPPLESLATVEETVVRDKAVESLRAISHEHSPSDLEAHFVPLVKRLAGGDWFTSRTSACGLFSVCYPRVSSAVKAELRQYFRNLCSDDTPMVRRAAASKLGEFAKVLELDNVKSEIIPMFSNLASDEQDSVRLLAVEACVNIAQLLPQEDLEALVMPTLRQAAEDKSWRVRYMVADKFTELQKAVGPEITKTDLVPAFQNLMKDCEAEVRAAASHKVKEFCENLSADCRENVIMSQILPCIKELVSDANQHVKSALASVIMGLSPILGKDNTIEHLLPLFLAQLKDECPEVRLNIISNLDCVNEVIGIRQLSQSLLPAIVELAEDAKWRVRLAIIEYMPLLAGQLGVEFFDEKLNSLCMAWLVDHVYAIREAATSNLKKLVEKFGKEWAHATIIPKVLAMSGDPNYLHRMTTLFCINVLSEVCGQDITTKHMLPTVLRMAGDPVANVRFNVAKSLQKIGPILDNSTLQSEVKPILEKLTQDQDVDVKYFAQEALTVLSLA
T1 sequence (P67775 whole entry): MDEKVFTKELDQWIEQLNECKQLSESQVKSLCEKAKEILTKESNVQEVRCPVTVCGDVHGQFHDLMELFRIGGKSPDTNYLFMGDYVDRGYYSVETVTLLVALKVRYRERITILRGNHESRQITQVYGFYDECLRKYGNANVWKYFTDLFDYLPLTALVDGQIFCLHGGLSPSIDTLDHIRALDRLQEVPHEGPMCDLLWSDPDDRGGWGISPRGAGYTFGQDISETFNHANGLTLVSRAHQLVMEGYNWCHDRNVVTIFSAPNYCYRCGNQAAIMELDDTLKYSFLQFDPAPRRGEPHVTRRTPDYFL
T1 sequence (Q15172 whole entry): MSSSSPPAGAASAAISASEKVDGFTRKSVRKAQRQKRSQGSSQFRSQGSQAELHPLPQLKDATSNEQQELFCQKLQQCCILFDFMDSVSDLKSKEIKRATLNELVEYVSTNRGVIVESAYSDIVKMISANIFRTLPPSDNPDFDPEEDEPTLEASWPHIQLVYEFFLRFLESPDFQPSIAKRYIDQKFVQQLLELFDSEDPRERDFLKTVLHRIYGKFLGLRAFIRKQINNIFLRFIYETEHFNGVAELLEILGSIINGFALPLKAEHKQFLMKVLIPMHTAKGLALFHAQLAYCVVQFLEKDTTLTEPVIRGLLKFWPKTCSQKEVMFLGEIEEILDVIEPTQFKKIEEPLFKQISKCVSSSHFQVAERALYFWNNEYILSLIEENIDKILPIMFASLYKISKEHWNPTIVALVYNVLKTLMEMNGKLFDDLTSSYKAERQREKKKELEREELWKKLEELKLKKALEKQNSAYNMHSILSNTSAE
Protocol: SK-N-AS, SK-N-BE(2), SH-EP, or WAC2 cells (1 × 10^6) were treated with ATUX-3364 or ATUX-8385 (SK-N-AS and SK-N-BE(2) 4 µM; SH-EP and WAC2 12 µM) for 24 h and lysed using HEPES ((4-(2-hydroxyethyl)-1-piperazineethanesulfonic acid, 10 mM) (AC215001000, Thermo Fisher Scientific), MgCl2 (1.5 mM) (MX0045-4, EM Science, Gibbstown, NJ, USA), KCl (10 mM) (02-003-741, Thermo Fisher Scientific), phenylmethylsulfonyl fluoride (0.5 mM) (PMSF, Sigma Aldrich), dithiothreitol (0.5 mM) (EC-601, National Diagnostics, Atlanta, GA, USA), and Igepal CA-630 (0.2%) (I7771, Sigma Aldrich) on ice for 20 min. Cell lysates were centrifuged at 17 000 rpm for 30 min at 4 °C. A PP2A Immunoprecipitation Phosphatase Assay Kit (17–313, EMD Millipore) was utilized per the manufacturer’s protocol to evaluate the activity of PP2A. Experiments were completed with at least three biological replicates, and data were reported as mean fold change ± standard error of the mean (SEM).

COA6 PDX cells [3] = assay: Cell viability, alamarBlue assay; format: cell-based, human; details: COA6 PDX cells, 0, 5, 10, 20 μM, 24 h
Protocol: (§1) Cell viability was determined by alamarBlue assay (Thermo Fisher Scientific) and proliferation was detected with CellTiter 96 Proliferation assay (Promega, Madison, WI, USA). NB cell lines (15,000 cells for viability or 5000 for proliferation) or COA6 PDX cells (30,000 for viability or 10,000 for proliferation) were seeded in 96-well cell culture plates followed by treatment with increasing doses of ATUX-3364 or ATUX-8385 for 24 h. Doses were as follows: established cell lines, 0–20 µM; PDX COA6 cells, 0–25 µM. Respective dyes (10 µL) were added, and absorbance measurement was completed with a microplate reader (Epoch Microplate Spectrophotometer, BioTek Instruments, Winooski, VT, USA). A wavelength of 570 nm was used for alamarBlue and 490 nm for CellTiter 96 with 600 nm serving as the reference for both. A minimum of three biological replicates for each experiment were completed, and data were reported as fold change ± SEM.

SH-EP cells [4] = assay: Cell viability, alamarBlue assay; format: cell-based, human; details: SH-EP, 0, 5, 7.5, 20 μM, 24 h
Protocol: as §1

SK-N-AS cells [5] = assay: Cell viability, alamarBlue assay; format: cell-based, human; details: SK-N-AS, 0, 5, 7.5, 20 μM, 24 h
Protocol: as §1

SK-N-BE(2) cells [6] = assay: Cell viability, alamarBlue assay; format: cell-based, human; details: SK-N-BE(2), 0, 5, 7.5, 20 μM, 24 h
Protocol: as §1

WAC2 cells [7] = assay: Cell viability, alamarBlue assay; format: cell-based, human; details: WAC2, 0, 5, 7.5, 20 μM, 24 h
Protocol: as §1

COA6 PDX cells [8] = assay: Proliferation, CellTiter 96 assay; format: cell-based, human; details: increasing doses, 24 h
Protocol: as §1

SH-EP cells [9] = assay: Proliferation, CellTiter 96 assay; format: cell-based, human; details: increasing doses, 24 h
Protocol: as §1

SK-N-AS cells [10] = assay: Proliferation, CellTiter 96 assay; format: cell-based, human; details: increasing doses, 24 h
Protocol: as §1

SK-N-BE(2) cells [11] = assay: Proliferation, CellTiter 96 assay; format: cell-based, human; details: increasing doses, 24 h
Protocol: as §1

WAC2 cells [12] = assay: Proliferation, CellTiter 96 assay; format: cell-based, human; details: WAC2, increasing doses, 24 h
Protocol: as §1

SH-EP cells [13] = assay: Monolayer wound healing (scratch) assay; format: cell-based, human; details: 12 μM, vs untreated cells, p ≤ 0.001
Protocol: (§2) Migration was investigated using a monolayer wound healing (scratch) assay. Established NB cells (5 × 10^4) were plated in 12-well plates. […] Photographs of the plates were obtained at 0, 12, 24, and 36 h. The ImageJ MRI Wound Healing Tool (https://imagej.net, accessed on 26 November 2021) quantified the open wound area as previously described. In PDX cells, migration was assessed using modified Boyden chamber assays. Micropore inserts with […] (Corning) were utilized in 24-well plates. The insert bottoms were coated with human laminin (10 µg/mL, 150 μL, EMD Millipore). COA6 PDX cells were treated for 24 h with ATUX-3364 or ATUX-8385 (6 μM), plated (4 × 10^4 cells), allowed to migrate through the membrane for 72 h, and the insert membranes were fixed using 4% paraformaldehyde and stained with 1% crystal violet for 15 min. Inserts were photographed, and migration was quantified with ImageJ (https://imagej.net, accessed on 26 November 2021). Scratch assays were reported as the fold change area remaining open at 36 h, and modified Boyden chamber assays were reported as the mean number of migrated cells ± SEM. Experiments were completed with at least three biological replicates.

SK-N-AS cells [14] = assay: Monolayer wound healing (scratch) assay; format: cell-based, human; details: 4 μM
Protocol: as §2

SK-N-BE(2) cells [15] = assay: Monolayer wound healing (scratch) assay; format: cell-based, human; details: 4 μM, vs untreated cells, p ≤ 0.001
Protocol: as §2

WAC2 cells [16] = assay: Monolayer wound healing (scratch) assay; format: cell-based, human; details: WAC2, 12 μM; vs untreated cells, p ≤ 0.001
Protocol: as §2

COA6 PDX cells [17] = assay: Modified Boyden chamber migration assay; format: cell-based, human; details: COA6, 6 μM, treated 24 h, 72 h migration; p ≤ 0.001
Protocol: as §2

SK-N-AS tumors = assay: In vivo tumor growth, flank xenograft; design: species or system athymic nude mice; details: 50 mg/kg oral twice daily, 14 days
Protocol: (§3) SK-N-AS or SK-N-BE(2) (1.5 × 10^6) cells in 25% Matrigel (BD Biosciences) were injected into the right flank of 6-week-old female athymic nude mice (Fredricks) (n = 7 for SK-N-AS vehicle treated, n = 6 for SK-N-AS experimental groups, n = 5 for SK-N-BE(2) vehicle treated, n = 6 for SK-N-BE(2) ATUX-3364, and n = 7 ATUX-8385 treatment groups). Tumors were measured thrice per week with calipers, and tumor volumes were calculated by the formula (width^2 × length)/2, where the width was the smaller measurement. When tumors reached a volume of 60–100 mm^3, animals were randomized to three groups to receive 100 µL twice daily by oral gavage of vehicle [N,N-dimethylacetamide (DMA, 271012, Sigma Aldrich) and Kolliphor HS 15 (Solutol, 42996, Sigma Aldrich)], ATUX-3364 (50 mg/kg in DMA and Solutol), or ATUX-8385 (50 mg/kg in DMA and Solutol); dosing was based on previously published data using in vivo cancer models. Animals were weighed daily and were humanely euthanized in their home cages with CO2 and cervical dislocation 14 (SK-N-AS) or 21 (SK-N-BE(2)) days after treatment initiation, when the tumor volume reached 2000 mm^3, or when animals met IACUC parameters. Because COA6 cells grow tumors unpredictably and erratically in mice, these PDX cells were not utilized for in vivo studies, but all COA6 tumors were propagated in mice.

SK-N-BE(2) tumors = assay: In vivo tumor growth, flank xenograft; design: species or system athymic nude mice; details: 50 mg/kg oral twice daily, 21 days
Protocol: as §3

CIP2A = assay: Immunoblotting for the endogenous PP2A inhibitor CIP2A; format: cell-based, human; details: immunoblot
Protocol: (§4) Post-treatment, cell lysis was completed in radioimmunoprecipitation (RIPA) buffer. Phosphatase inhibitors (P5726, Sigma), protease inhibitors (P8340, Sigma), and phenylmethanesulfonylfluoride (PMSF, P7626, Sigma) were added to make a complete RIPA buffer. Lysis was performed for 60 min at 4 °C followed by centrifugation at 17,000 rpm for 30 min (4 °C). The protein concentration was determined using the Pierce BCA Protein Assay (Thermo Fisher Scientific), and protein separation was completed on sodium dodecyl sulfate polyacrylamide (SDS-PAGE) gel-based electrophoresis. Targeted protein size was determined using molecular weight markers (Precision Plus Protein Kaleidoscope, Bio-Rad, Hercules, CA, USA). […] Immunoblots were developed with Luminata Classico or Crescendo Western horseradish peroxidase substrate (EMD Millipore, Burlington, MA, USA) on X-ray film. Anti-beta-actin, anti-vinculin, or anti-GAPDH served as internal loading controls.

SET = assay: Immunoblotting for the endogenous PP2A inhibitor SET; format: cell-based, human; details: immunoblot
Protocol: as §4

PARP = assay: Immunoblotting for cleaved and total PARP (apoptosis); format: cell-based, human; details: immunoblot
Protocol: as §4

MYCN = assay: Immunoblotting for phosphorylated MYCN (S62) and total MYCN; format: cell-based, human; details: increasing concentrations, immunoblot
Protocol: as §4

[18] = design: method as in PMID 35454859; details: in vivo; cited from earlier work
[19] = design: method as in PMID 35454859; details: cited from earlier work

SMILES: O=S(=O)(N[C@@H]1CNC[C@H](n2c3ccc(F)cc3c3cc(F)ccc32)[C@H]1O)c1ccc(OC(F)(F)F)cc1 [ATUX-8385]
- in vivo IV clearance stability relative to DBK-1154 ([1]; 12.3 vs 32.5 mL/min/kg): more stable by a factor of nearly three times
- Plasma levels ([1]; for approximately 8 h after a bolus oral dose at 30 mg/kg): 1 to 2 µM
- microsome stability relative to DBK-1154 ([2]; <115.5 vs 234 µL/min/mg): more stable by a factor of two
- Clearance (in vitro microsome (oxidative) stability) ([2]; Test Concentration 1 x 10^-7 M): < 115.5 µL/min/mg
- PP2A activation (percent of control) (PP2A; SH-EP cells, 12 μM): 126.6 ± 6.4%
- PP2A activation (percent of control) (PP2A; SK-N-AS cells, 4 μM): 134.1 ± 5.5%
- PP2A activation (percent of control) (PP2A; SK-N-BE(2) cells, 4 μM): 167.2 ± 13.7%
- PP2A activation (percent of control) (PP2A; WAC2 cells, 12 μM): 118.2 ± 9.2%
- viability (COA6 PDX cells [3]): significantly decreased
- viability (SH-EP cells [4]): significantly decreased viability
- viability (SK-N-AS cells [5]): significantly decreased viability
- viability (SK-N-BE(2) cells [6]): significantly decreased viability
- viability (WAC2 cells [7]): significantly decreased viability
- proliferation (COA6 PDX cells [8]): significant decrease
- proliferation (SH-EP cells [9]): significant decrease
- proliferation (SK-N-AS cells [10]): significant decrease
- proliferation (SK-N-BE(2) cells [11]): significant decrease
- proliferation (WAC2 cells [12]): significant decrease
- motility (wound healing, area remaining open at 36 h) (SH-EP cells [13]): significant decrease in motility
- motility (wound healing, area remaining open at 36 h) (SK-N-AS cells [14]): affected in a statistically significant manner
- motility (wound healing, area remaining open at 36 h) (SK-N-BE(2) cells [15]): significant decrease in motility
- motility (wound healing, area remaining open at 36 h) (WAC2 cells [16]): significant decrease in motility
- cell migration (number of migrated cells) (COA6 PDX cells [17]): significantly decreased
- relative tumor growth (SK-N-AS tumors): no decrease
- tumor volumes (SK-N-AS tumors): no decrease
- relative tumor growth (SK-N-BE(2) tumors): significant decrease
- tumor volumes (SK-N-BE(2) tumors): significant decrease
- CIP2A expression (CIP2A; SH-EP cells): decreased
- CIP2A expression (CIP2A; SK-N-AS cells): decreased
- CIP2A expression (CIP2A; SK-N-BE(2) cells): decreased
- CIP2A expression (CIP2A; WAC2 cells): decreased
- SET expression (SET; COA6 PDX cells): variably affected
- SET expression (SET; SH-EP cells): did not alter SET expression
- SET expression (SET; SK-N-AS cells): unchanged
- SET expression (SET; SK-N-BE(2) cells): increased
- SET expression (SET; WAC2 cells): decreased
- cleaved PARP (PARP; SK-N-AS whole cell lysates): increase
- total PARP (PARP; SK-N-AS whole cell lysates): decrease
- cleaved PARP (PARP; SK-N-BE(2) whole cell lysates): increase
- total PARP (PARP; SK-N-BE(2) whole cell lysates): decrease
- phosphorylated MYCN (S62) (MYCN; SK-N-AS cells): decreased
- total MYCN protein expression (MYCN; SK-N-AS cells): decreased
- phosphorylated MYCN (S62) (MYCN; SK-N-BE(2) cells): decreased
- total MYCN protein expression (MYCN; SK-N-BE(2) cells): decreased

SMILES: O=S(=O)(NC1CCCC(N2c3ccccc3CCc3ccccc32)C1O)c1ccc(OC(F)(F)F)cc1 (stereo not shown) [DBK-1154]
- clearance IV [18]: 1.95 L/h/kg
- in vitro microsome (oxidative) stability (clearance) [19]: 234 µL/min/mg
